One test addresses T1, human AT1 receptor (Homo sapiens, UniProt P30556).
T1 construct: expressed in transfected cells; membrane fraction
T1 sequence (P30556 1-359): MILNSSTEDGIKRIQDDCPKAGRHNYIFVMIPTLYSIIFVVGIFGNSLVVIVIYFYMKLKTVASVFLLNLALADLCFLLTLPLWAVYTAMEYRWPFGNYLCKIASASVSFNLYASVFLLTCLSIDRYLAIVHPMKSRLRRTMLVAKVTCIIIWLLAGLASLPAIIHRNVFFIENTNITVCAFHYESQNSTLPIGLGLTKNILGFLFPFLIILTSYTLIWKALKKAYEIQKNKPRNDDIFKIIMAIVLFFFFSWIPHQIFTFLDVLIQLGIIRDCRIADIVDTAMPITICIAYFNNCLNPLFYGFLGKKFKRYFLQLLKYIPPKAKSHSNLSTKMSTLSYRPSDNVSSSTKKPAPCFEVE
The test can be described thus: AT1 receptor antagonistic activity: [125I]-angiotensin II binding assay on human AT1 receptor-expressing CHO-K1 cellular membrane fraction. Particulars: 22.5 pM [125I]-angiotensin II, 1 hr room temperature. The method, then:
CHO-K1 cell (RIKEN, Japan) capable of stable expression of human AT1 receptor was cultured, recovered, suspended in homogenize buffer (10 mM NaHCO3 (pH 7.4), 5 mM EDTA, 1× Complete EDTA free) [manufactured by Roche, Switzerland], and homogenized. The homogenate was centrifuged at low-speed (900×g, 10 min, 4° C.), and the supernatant was recovered and ultracentrifuged (90,000×g, 1 hr, 4° C.). The supernatant was discarded, and the pellets were resuspended in suspension buffer (50 mM Tris (pH 7.4), 1 mM EDTA, 1× Complete EDTA free).
(9 μg) in the presence of AT1 membrane and test compound in 100 μl, (total reaction volume) of reaction buffer (50 mM Tris (pH 7.4), 10 mM MgCl2 supplemented or not supplemented with 0.3 mg/mL fatty acid-free bovine serum albumin [manufactured by Wako Pure Chemical Industries, Ltd., Japan]). The reaction mixture was incubated in 96 well polypropylene plate for 1 hr at room temperature, and the reaction was quenched by rapid filtration (96 well cell harvester) through a GF/C filter treated with wash buffer (50 mM Tris (pH 7.4)). Subsequently, the filter was washed 5 times with 0.3 mL of ice-cooled wash buffer. […] Total binding was measured in the presence of 1% DMSO and nonspecific binding was measured in the presence of […] Candesartan.

For another test, the target named is T2, human PPARγ (Homo sapiens, UniProt P37231).
T2 construct: expressed in transfected cells
T2 sequence (P37231 1-477 isoform P37231-2): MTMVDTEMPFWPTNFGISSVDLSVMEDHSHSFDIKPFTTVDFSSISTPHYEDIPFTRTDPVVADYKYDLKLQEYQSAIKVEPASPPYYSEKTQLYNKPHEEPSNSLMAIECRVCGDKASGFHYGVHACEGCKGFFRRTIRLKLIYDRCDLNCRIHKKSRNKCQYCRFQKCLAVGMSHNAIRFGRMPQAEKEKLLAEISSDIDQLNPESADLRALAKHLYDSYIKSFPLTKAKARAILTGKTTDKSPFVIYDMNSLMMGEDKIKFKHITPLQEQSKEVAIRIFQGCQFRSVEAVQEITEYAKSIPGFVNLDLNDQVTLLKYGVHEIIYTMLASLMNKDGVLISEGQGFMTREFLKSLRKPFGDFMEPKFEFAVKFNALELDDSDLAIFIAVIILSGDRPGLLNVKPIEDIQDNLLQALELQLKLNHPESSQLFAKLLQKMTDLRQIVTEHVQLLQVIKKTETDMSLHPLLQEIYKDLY
T2 sequence (P19793 1-462 partner): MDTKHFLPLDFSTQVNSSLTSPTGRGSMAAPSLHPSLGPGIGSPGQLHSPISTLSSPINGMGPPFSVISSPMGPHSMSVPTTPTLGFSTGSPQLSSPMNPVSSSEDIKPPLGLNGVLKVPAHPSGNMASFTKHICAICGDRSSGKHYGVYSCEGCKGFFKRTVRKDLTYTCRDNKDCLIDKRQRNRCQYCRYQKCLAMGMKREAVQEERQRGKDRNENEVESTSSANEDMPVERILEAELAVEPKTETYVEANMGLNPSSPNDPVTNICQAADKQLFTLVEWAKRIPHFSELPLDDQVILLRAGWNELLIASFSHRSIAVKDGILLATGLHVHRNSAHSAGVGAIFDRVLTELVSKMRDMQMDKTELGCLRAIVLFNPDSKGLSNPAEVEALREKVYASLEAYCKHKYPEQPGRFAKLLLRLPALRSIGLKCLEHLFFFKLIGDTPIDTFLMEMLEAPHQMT
The test can be described thus: PPARγ agonistic activity: luciferase reporter assay in PPARγ:RXRα:4ERPP/CHO-K1 cells. In kind it is cell-based. Particulars: CHO-K1, test compound 10^−6 M; luciferase activity of control compound X (1 μM) = 100%, non-administration group = 0%. From the text:
A CHO-K1 cell cultured in a 150 cm^2 cell culture flask [manufactured by Corning Costar Corporation, USA] comprising Ham's F12 medium [manufactured by INVITROGEN, USA] supplemented with 10% fetal bovine serum [manufactured by INVITROGEN, USA] was taken off by treating with 0.5 g/L trypsin-0.2 g/L EDTA (ethylenediamine tetraacetate) [manufactured by Life Technologies, Inc., USA], and then the cell was washed with PBS (Phosphate-buffered saline) [manufactured by INVITROGEN, USA], centrifuged (1000 rpm, 5 minutes) and suspended in PBS. Subsequently, DNA was introduced into the cell under the conditions shown below using GENE PULSER [manufactured by Bio-Rad Laboratories, USA].
Namely, to a cuvette having a 0.4 cm gap were added 8×10^6 cells and 10 μg of plasmid pVgRXR2-hPPARγ obtained in the above-mentioned (4) and 10 μg of reporter plasmid pGL3-4ERPP-TK neo obtained in the above-mentioned (3), which was subjected to electroporation at the voltage of 0.25 kV under the capacitance of […] Subsequently, the cell was transferred into a F12 medium comprising 10% fetal bovine serum and cultured for 24 hours, and then the cell was taken off again and centrifuged. Then, the pellet was suspended in Ham's F12 medium comprising 10% fetal bovine serum supplemented with 500 μg/ml of Geneticin [manufactured by INVITROGEN, USA] and 250 μg/ml of Zeocin [manufactured by INVITROGEN, USA]. The obtained suspension was diluted to the density of 10^4 cells/ml and inoculated in a 96-well plate [manufactured by Corning Costar Corporation, USA], which was cultured in a CO2 gas incubator at 37° C., whereby obtaining a Geneticin- and Zeocin-resistant transformant.
Subsequently, after the transformed cell line thus obtained was cultured in a 24-well plate [manufactured by Corning Costar Corporation, USA], a cell line in which expression of the luciferase was induced, i.e., PPARγ:RXRα:4ERPP/CHO-K1 cell was selected by the addition of 10 μM pioglitazone hydrochloride.
PPARγ:RXRα:4ERPP/CHO-K1 cells obtained in the above-mentioned (5) were cultured in F12 medium [manufactured by INVITROGEN, USA] containing 10% fetal bovine serum [manufactured by MOREGATE, Australia], seeded in a 96 well half-area white plate [manufactured by Corning Coster Corporation, USA] at 5×10^3 cells/well, and cultured in a CO2 incubator at 37° C. overnight.
Then, the medium was removed from the 96 well half-area white plate, hamF12 medium containing 0.1% fatty acid-free bovine serum albumin (BSA) (45 μl) and a test compound (5 μl) were added, and the mixture was cultured in the CO2 incubator at 37° C. for 1 day. After removing the medium, Picagene 7.5 [manufactured by Dai Nippon Inki, Japan] (20 μl) diluted 2-fold with HBSS (HANKS' BALANCED SALT SOLUTION) [manufactured by BIO […], USA] was added, and the mixture was stirred. Using 1420 ARVO Multilabel Counter [manufactured by PerkinElmer, USA], luciferase activity was measured. The percentage (%) was calculated from the luciferase activity of the test compound when the luciferase activity of the control compound (compound X: 5-[3-(4-{[2-(2-furyl)-5-methyl-1,3-oxazol-4-yl]methoxy}-3-methoxyphenyl)propyl]-1,3-oxazolidine-2,4-dione) (1 μM) was taken as 100% and the luciferase activity of the test compound non-administration group was taken as 0%.

Regarding `CCCc1c(Cc2ccc(-c3ccccc3-c3noc(=O)[nH]3)cc2)c(=O)n(CC(=O)C(C)(C)C)c2ncnn12` [Example 10, 4-(3,3-dimethyl-2-oxobutyl)-6-{[2′-(5-oxo-4,5-dihydro-1,2,4-oxadiazol-3-yl)biphenyl-4-yl]methyl}-7-propyl[1,2,4]triazolo[1,5-a]pyrimidin-5(4H)-one], on human AT1 receptor, the IC50 is 1.8 nM. At human PPARγ, the activation at 1 µM amounted to 18%.

On human AT1 receptor, `CCCc1c(Cc2ccc(-c3ccccc3-c3noc(=O)[nH]3)cc2)c(=O)n(CC2CC2)c2ncnn12` [Example 21, 4-(cyclopropylmethyl)-6-{[2′-(5-oxo-4,5-dihydro-1,2,4-oxadiazol-3-yl)biphenyl-4-yl]methyl}-7-propyl[1,2,4]triazolo[1,5-a]pyrimidin-5(4H)-one] had an IC50 of 2 nM. On human PPARγ, this compound displayed an activation at 1 µM of 31%.

`CCCc1c(Cc2ccc(-c3ccccc3-c3noc(=O)[nH]3)cc2)c(=O)n(Cc2ccc(C(C)=O)cc2)c2ncnn12` [Example 28, 4-(4-acetylbenzyl)-6-{[2′-(5-oxo-4,5-dihydro-1,2,4-oxadiazol-3-yl)biphenyl-4-yl]methyl}-7-propyl[1,2,4]triazolo[1,5-a]pyrimidin-5(4H)-one] showed a concentration for half-maximal inhibition (IC50) on human AT1 receptor of 3 nM. On human PPARγ, this compound yielded an activation at 1 µM of 49%.

`CCCc1c(Cc2ccc(-c3ccccc3-c3noc(=O)[nH]3)cc2)c(=O)n(CCC)c2ncnn12` [Example 29, 6-{[2′-(5-oxo-4,5-dihydro-1,2,4-oxadiazol-3-yl)biphenyl-4-yl]methyl}-4,7-dipropyl[1,2,4]triazolo[1,5-a]pyrimidin-5(4H)-one] gave an IC50 at human AT1 receptor of 3 nM. Besides, the activation at 1 µM at human PPARγ was 16%.

Regarding `CCCc1c(Cc2ccc(-c3ccccc3-c3noc(=O)[nH]3)cc2F)c(=O)n(Cc2ccc(OC)cc2OC)c2ncnn12` [Example 37, 4-(2,4-dimethoxybenzyl)-6-{[3-fluoro-2′-(5-oxo-4,5-dihydro-1,2,4-oxadiazol-3-yl)biphenyl-4-yl]methyl}-7-propyl[1,2,4]triazolo[1,5-a]pyrimidin-5(4H)-one], the half-maximal inhibitory concentration (IC50) at human AT1 receptor is 2.5 nM. The same compound showed an activation at 1 µM at human PPARγ of 33%.

Compound `CCCc1c(Cc2ccc(-c3ccccc3-c3noc(=O)[nH]3)cc2F)c(=O)n(-c2ccc(OC(C)C)cc2)c2ncnn12` [Example 43, 6-{[3-fluoro-2′-(5-oxo-4,5-dihydro-1,2,4-oxadiazol-3-yl)biphenyl-4-yl]methyl}-4-[4-(1-methylethoxy)phenyl]-7-propyl[1,2,4]triazolo[1,5-a]pyrimidin-5(4H)-one] showed a half-maximal inhibitory concentration (IC50) at human AT1 receptor of 2.1 nM. Also, the activation at 1 µM at human PPARγ was 34%.

`CCCc1c(Cc2ccc(-c3ccccc3-c3noc(=O)[nH]3)cc2)c(=O)n(C(C)CC)c2nc(C)nn12` (stereo not shown) [Example 68, 2-methyl-4-(1-methylpropyl)-6-{[2′-(5-oxo-4,5-dihydro-1,2,4-oxadiazol-3-yl)biphenyl-4-yl]methyl}-7-propyl[1,2,4]triazolo[1,5-a]pyrimidin-5(4H)-one] returned an IC50 on human AT1 receptor of 1.7 nM. This compound gave an activation at 1 µM on human PPARγ of 17%.

On human AT1 receptor, `CCCc1c(Cc2ccc(-c3ccccc3-c3noc(=O)[nH]3)cc2)c(=O)n(CC2(C)CC2)c2nc(C)nn12` [Example 69, 2-methyl-4-[(1-methylcyclopropyl)methyl]-6-{[2′-(5-oxo-4,5-dihydro-1,2,4-oxadiazol-3-yl)biphenyl-4-yl]methyl}-7-propyl[1,2,4]triazolo[1,5-a]pyrimidin-5(4H)-one] had a half-maximal inhibitory concentration (IC50) of 1.4 nM. For the same compound, the activation at 1 µM at human PPARγ came out at 27%.

Regarding `CCCc1c(Cc2ccc(-c3ccccc3-c3noc(=O)[nH]3)cc2)c(=O)n(CC(C)(C)COC)c2nc(C)nn12` [Example 73, 4-(3-methoxy-2,2-dimethylpropyl)-2-methyl-6-{[2′-(5-oxo-4,5-dihydro-1,2,4-oxadiazol-3-yl)biphenyl-4-yl]methyl}-7-propyl[1,2,4]triazolo[1,5-a]pyrimidin-5(4H)-one], on human AT1 receptor, the half-maximal inhibitory concentration (IC50) came out at 1.5 nM. In addition, the activation at 1 µM at human PPARγ was 20%.

In the case of `CCCc1c(Cc2ccc(-c3ccccc3-c3noc(=O)[nH]3)cc2)c(=O)n(C2C=CCCC2)c2nc(C)nn12` (stereo not shown) [Example 74, 4-(cyclohex-2-en-1-yl)-2-methyl-6-{[2′-(5-oxo-4,5-dihydro-1,2,4-oxadiazol-3-yl)biphenyl-4-yl]methyl}-7-propyl[1,2,4]triazolo[1,5-a]pyrimidin-5(4H)-one], at human AT1 receptor, the IC50 turned out to be 2.1 nM. The activation at 1 µM on human PPARγ turned out to be 25%.

`CCCc1c(Cc2ccc(-c3ccccc3-c3noc(=O)[nH]3)cc2)c(=O)n(C2CCCCC2)c2nc(C)nn12` [Example 78, 4-cyclohexyl-2-methyl-6-{[2′-(5-oxo-4,5-dihydro-1,2,4-oxadiazol-3-yl)biphenyl-4-yl]methyl}-7-propyl[1,2,4]triazolo[1,5-a]pyrimidin-5(4H)-one] displayed an IC50 on human AT1 receptor of 1.8 nM. At human PPARγ, this compound showed an activation at 1 µM of 21%.

These data come from patent US8283353B2, “Fused ring compound and use thereof” (Takeda Pharmaceutical Company Limited, priority 2009, dated 2012).
